Experimental data published in ChEMBL document CHEMBL1121905, “erythro-5-[1-Hydroxy-2-(isopropylamino)butyl]-7-hydroxycarbostyril, a terbutaline-type derivative of the bronchodilator procaterol” (1981).

Tests used:
Canis familiaris [1] = assay: Compound was tested in anesthetized dogs for increase in heart rate (equipotent dose at ED25) Mean ED25 value, obtained at a dose of 0.021 ug/kg; assay type: functional; settings: Canis lupus familiaris
Canis familiaris [2] = assay: Compound was tested in anesthetized dogs for inhibition of bronchoconstriction (equipotent dose at ED50) Mean ED50 value, obtained at a dose of 0.054 ug/kg; assay type: functional; settings: Canis lupus familiaris, Lung
Cavia porcellus [3] = species on record: Cavia porcellus; assay: Compound was tested for effective dose required for 50% of maximum response in guinea pig trachea; assay type: functional; settings: read-out: ED50 (the source's name)
Cavia porcellus [4] = species on record: Cavia porcellus; assay: Intrinsic activity in guinea pig trachea; assay type: functional
Cavia porcellus [5] = species on record: Cavia porcellus; assay: Compound was tested for effective dose required for 25% of maximum response in guinea pig right atrium; maximal activity was obtained at 1 x 10 e-5 mol/L
Cavia porcellus [6] = species on record: Cavia porcellus; assay: Intrinsic activity (n=5) in guinea pig right atrium
Cavia porcellus [7] = species on record: Cavia porcellus; assay: Compound was tested for effective dose required for 25% of maximum response in guinea pig right atrium

Row | SMILES | ED25 (Canis familiaris [1]) | ED50 (Canis familiaris [2]) | EC50 (Cavia porcellus [3]) | Intrinsic activity (Cavia porcellus [4]) | ED25 (Cavia porcellus [5]) | Intrinsic activity (Cavia porcellus [6]) | ED25 (Cavia porcellus [7])
1 | CCC(NC(C)C)C(O)c1cc(O)cc2nc(O)ccc12 (configuration not stated) | 0.0871 mg/kg | 0.0417 mg/kg | 225 nM | 0.5 | maximal activity was obtained at 1 x 10 e-5 mol/L | – | –
2 | CC(C)NCC(O)c1ccc(O)c(O)c1 (configuration not stated) [ISOPROTERENOL] | 0.001 mg/kg | 0.001 mg/kg | – | – | – | – | –
3 | CCC(NC(C)C)C(O)c1ccc(O)c2[nH]c(=O)ccc12 (configuration not stated) [PROCATEROL] | – | – | 11 nM | 0.98 | – | 0.6 | 5.7 nM
4 | CCC(NC(C)C)C(O)c1cc(O)cc2c1CCC(=O)N2 (configuration not stated) | – | – | 1220 nM | 0.6 | – | 0.27 | 566 nM
5 | CC(C)(C)NCC(O)c1cc(O)cc(O)c1 (configuration not stated) [TERBUTALINE] | – | – | – | 0.7 | – | 0.73 | –
